Test results published in US5939428A, “Alkyl N-[3-(acridin-9-yl)amino-5-hydroxymethyl] phenylcarbamates” (National Health Research Institutes, priority 1998, dated 1999).

Tests used:
[1] = mouse, in vivo; cited from earlier work
[2] = longer than m-AMSA; cited from earlier work
[3] = test system: leukemia and several solid tumors; conditions: against growth of leukemia and several solid tumors, in vitro and in vivo; cited from earlier work
[4] = test system: murine leukemia and solid tumors (a mammary adenocarcinoma, B-16 melanoma and Lewis lung carcinoma); conditions: cited from earlier work
HL-60 cells = experiment: in vitro cytotoxicity against growth of human leukemic HL-60 cells; format: cell-based; conditions: read-out: IC50 for cell growth inhibition, HL-60
Experimental: (§1) The in vitro cytotoxicity of the N-[3-(acridin-9-yl)amino-5-hydroxymethyl]phenylcarbamate derivatives of the invention against growth of human leukemic HL-60 cells and 833K tumor cells, and the chemotherapeutic effects of ethyl N-[3-(acridin-9-yl)amino-5-hydroxymethyl]phenylcarbamate on Sarcoma 180 and Lewis lung carcinoma tumor bearing B6 D2 F1 mice were evaluated. The compound 3-(acridin-9-yl)amino-5-hydroxymethylaniline (AHMA) was also evaluated for comparison.
(§2) The in vitro cytotoxicity against growth of human
(§3) leukemic HL-60 cells and 833K tumor cells.

Sarcoma 180 = experiment: chemotherapeutic effect on Sarcoma 180 tumor bearing B6 D2 F1 mice; format: in vivo; conditions: for Average Tumor Volume (T/C), Day 7 / Average Weight Change, Day 7: QD × 5, day 7
Source text: Sarcoma 180 (3 × 10^6 cells) innoculated subcutaneously
(s.c.) on day 0. Treatment started on day 1, peritoneal injection (i.p.),

833K tumor cells = experiment: in vitro cytotoxicity against growth of 833K tumor cells; format: cell-based; conditions: Homo sapiens, read-out: IC50 for cell growth inhibition, 833K
Experimental: as §1, §2, §3

Lewis lung carcinoma = experiment: chemotherapeutic effect on Lewis lung carcinoma tumor bearing B6 D2 F1 mice; format: in vivo; conditions: for Average Weight Change, Day 7 / Average Weight Change, Day 10: mouse, in vivo, ip
Experimental: as §1
The chemotherapeutic effects on Sarcoma 180 and
Lewis lung carcinoma tumor bearing B6 D2 F1 mice.^a […]
carcinoma (4 × […] cells) inoculated s.c. on day (-2).
Treatment started on day 1, i.p., QD × 5. Control had 4 mice and
each dose had 3 mice. Tumor sizes were evaluated on day 7 and day 10.

[5] = 37° C.; cited from earlier work
[6] = mouse and rat; GSH conjugates; cited from earlier work
[7] = Lewis lung carcinoma, 3.0 mg/kg i.p., QD × 5
[8] = Lewis lung carcinoma, 6.0 mg/kg i.p., QD × 5

CNC(=O)c1cccc2c(Nc3ccc(NS(C)(=O)=O)cc3OC)c3cccc(C)c3nc12 [CI-921]
metabolites detected in addition to the 5'- and 6'-GSH conjugates [1]: two other metabolites, namely C9-GSH and the 4-hydroxymethyl derivatives of CI-921, were detected

Nc1cc(CO)cc(Nc2c3ccccc3nc3ccccc23)c1 [compound 1, 3-(acridin-9-yl)amino-5-hydroxymethylaniline]
plasma half-life [2]: 1.5 h | antitumor activity [3]: potent antitumor activity against growth of leukemia and several solid tumors both in vitro and in vivo with long half-life | toxicity toward the host compared with m-AMSA and VP-16 ([4]; mouse, in vivo): less toxic toward the host | antitumor efficacy compared with m-AMSA and VP-16 ([4]; murine leukemia and solid tumors): greater efficacy against murine leukemia and solid tumors (a mammary adenocarcinoma, B-16 melanoma and Lewis lung carcinoma) than m-AMSA and VP-16 | IC50 (HL-60 cells): 25 nM

CCOC(=O)Nc1cc(CO)cc(Nc2c3ccccc3nc3ccccc23)c1 [compound 2, ethyl N-[3-(acridin-9-yl)amino-5-hydroxymethyl]phenylcarbamate]
Average Tumor Volume (T/C), Day 7 (Sarcoma 180; 3.0 mg/kg i.p.): 1.24 | Average Weight Change, Day 7 (Sarcoma 180; 3.0 mg/kg i.p.): -2.0 gm | Average Tumor Volume (T/C), Day 10 (Sarcoma 180; 3.0 mg/kg i.p., QD × 5, day 10): 1.21 | Average Weight Change, Day 10 (Sarcoma 180; 3.0 mg/kg i.p., QD × 5, day 10): -0.7 gm | Average Tumor Volume (T/C), Day 7 (Sarcoma 180; 5.0 mg/kg i.p.): 0.06 | Average Weight Change, Day 7 (Sarcoma 180; 5.0 mg/kg i.p.): -2.6 gm | Average Tumor Volume (T/C), Day 10 (Sarcoma 180; 5.0 mg/kg i.p., QD × 5, day 10): 0.63 | Average Weight Change, Day 10 (Sarcoma 180; 5.0 mg/kg i.p., QD × 5, day 10): +1.0 gm | Average Tumor Volume (T/C), Day 7 (Sarcoma 180; 7.0 mg/kg i.p.): 0.22 | Average Weight Change, Day 7 (Sarcoma 180; 7.0 mg/kg i.p.): -3.4 gm | Average Tumor Volume (T/C), Day 10 (Sarcoma 180; 7.0 mg/kg i.p., QD × 5, day 10): < 0.01 | Average Weight Change, Day 10 (Sarcoma 180; 7.0 mg/kg i.p., QD × 5, day 10): -0.1 gm | Tumor detectability (footnote b) (Sarcoma 180; 7.0 mg/kg i.p., QD × 5, day 10): Tumor not detectable | IC50 (833K tumor cells): 20 nM | Average Tumor Volume (T/C), Day 7 (Lewis lung carcinoma; [7]): 0.8 | Average Tumor Volume (T/C), Day 10 (Lewis lung carcinoma; [7]): 0.63 | Average Tumor Volume (T/C), Day 7 (Lewis lung carcinoma; [8]): 0.44 | Average Tumor Volume (T/C), Day 10 (Lewis lung carcinoma; [8]): 0.37 | Mortality (footnote c) (Lewis lung carcinoma; Lewis lung carcinoma, 8.0 mg/kg i.p., QD × 5, 3 mice): One mouse died on day 8 and two mice died on day 9 | Average Tumor Volume (T/C), Day 7 (Lewis lung carcinoma; Lewis lung carcinoma, 8.0 mg/kg i.p., QD × 5): 0.21 | Average Weight Change, Day 7 (Lewis lung carcinoma; 3 mg/kg): -2.3 gm | Average Weight Change, Day 10 (Lewis lung carcinoma; 3 mg/kg): -1.3 gm | Average Weight Change, Day 7 (Lewis lung carcinoma; 6 mg/kg): -3 gm | Average Weight Change, Day 10 (Lewis lung carcinoma; 6 mg/kg): -2.6 gm | Average Weight Change, Day 7 (Lewis lung carcinoma; 8 mg/kg): -3.6 gm | IC50 (HL-60 cells): 16 nM

CC(C)COC(=O)Nc1cc(CO)cc(Nc2c3ccccc3nc3ccccc23)c1 [compound 3, i-butyl N-[3-(acridin-9-yl)amino-5-hydroxymethyl]phenylcarbamate]
IC50 (833K tumor cells): 21 nM | IC50 (HL-60 cells): 18 nM

CNC(=O)c1cccc2c(Nc3cc(N)cc(CO)c3)c3cccc(C)c3nc12 [compound 4, 3-(5-methyl-4-methylamino-carbonylacridin-9-yl)amino-5-hydroxymethylaniline]
IC50 (833K tumor cells): 244 nM | IC50 (HL-60 cells): 144 nM

CCOC(=O)Nc1cc(CO)cc(Nc2c3cccc(C)c3nc3c(C(=O)NC)cccc23)c1 [compound 5, ethyl N-[3-(4-methylaminocarbonyl-5-methylacridin-9-yl)amino-5-hydroxymethyl]phenylcarbamate]
IC50 (833K tumor cells): 34 nM | IC50 (HL-60 cells): 83 nM

COc1cc(NS(C)(=O)=O)ccc1Nc1c2ccccc2nc2ccccc12 [m-AMSA, 4'-(9-acridinylamino)methanesulfon-m-anisidine]
half-life in the presence of fresh mouse blood [5]: ca. 30 min | major biliary metabolites [6]: the major biliary metabolites of this agent were the 5'- and 6'-glutathione (GSH) conjugates, with no C9-GSH conjugate being found | dose excreted as the glutathione conjugate in the bile [1]: More than 50%
